Data set [1] has as its system Blood. The experiment in a line: Induction of TNF-alpha secretion in human whole blood. In kind it is functional, tissue-based.
The subject of data set [2] is Blood. As to the kind of experiment: Induction of IP-10 secretion in human whole blood. In kind it is functional, tissue-based.
The test system of data set [3] is Blood. As to the kind of experiment: Induction of IFIT3 secretion in human whole blood. In kind it is functional, tissue-based.
Data set [4] concerns Blood. The experiment in a line: Induction of MX1 secretion in human whole blood. In kind it is functional, tissue-based.
Data set [5] concerns Blood. As to the kind of experiment: Induction of IP-10 secretion in mouse whole blood. In kind it is functional, tissue-based.
In data set [6] the test system is Blood. As to the kind of experiment: Induction of IFIT1 secretion in mouse whole blood. In kind it is functional, tissue-based.
Data set [7] relates to Blood. The experiment in a line: Induction of IFIT3 secretion in mouse whole blood. In kind it is functional, tissue-based.
The test system of data set [8] is Blood. As to the kind of experiment: Induction of MX1 secretion in mouse whole blood. In kind it is functional, tissue-based.
Data set [9] can be described thus: Protein binding in mouse plasma assessed as free fraction. In kind it is ADME, cell-free.
Data set [10] deals with Toll-like receptor 4 (Homo sapiens) (UniProt O00206). The experiment in a line: Agonist activity at human TLR4.
Data set [11] addresses T1, Nuclear receptor subfamily 1 group I member 2 (Homo sapiens, UniProt O75469).
T1 sequence (O75469 whole entry): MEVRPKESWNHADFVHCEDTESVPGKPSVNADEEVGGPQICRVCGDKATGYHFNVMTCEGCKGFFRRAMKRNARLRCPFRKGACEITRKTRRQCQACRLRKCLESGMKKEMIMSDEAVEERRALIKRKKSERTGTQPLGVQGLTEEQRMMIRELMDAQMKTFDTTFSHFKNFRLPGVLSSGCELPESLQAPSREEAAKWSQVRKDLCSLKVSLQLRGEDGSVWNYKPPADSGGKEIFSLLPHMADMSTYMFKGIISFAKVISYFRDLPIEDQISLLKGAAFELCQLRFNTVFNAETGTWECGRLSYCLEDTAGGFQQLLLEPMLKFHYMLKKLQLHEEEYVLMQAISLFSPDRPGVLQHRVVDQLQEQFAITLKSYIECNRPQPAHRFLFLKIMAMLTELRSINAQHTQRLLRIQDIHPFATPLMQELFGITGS
The experiment in a line: Transactivation of PXR (unknown origin).

Data set [12] relates to CT26. As to the kind of experiment: Cytotoxicity against mouse CT26 cells. In kind it is toxicity, cell-based.
For data set [13], the system named is Jurkat. The experiment in a line: Cytotoxicity against human Jurkat cells. In kind it is toxicity, cell-based.
Data set [14] can be described thus: Metabolic stability in mouse liver microsomes assessed as half-life. In kind it is ADME, Microsome.
Data set [15] in a line: Metabolic stability in cynomolgus monkey liver microsomes assessed as half-life. In kind it is ADME, Macaca fascicularis, Microsome.
Data set [16] relates to Mus musculus. The experiment in a line: Induction of IFN-alpha production in Balb/c mouse serum at […], iv measured after 6 hrs by ELISA analysis. In kind it is functional, organism-based. For orientation: An ELISA detects its analyte on a solid surface through an enzyme-linked reagent.
In data set [17] the test system is CT26. The experiment in a line: Antitumor activity against mouse CT26 cells implanted in Balb/cAnNHsd mouse administered intraperitoneally once a week for 4 weeks in the presence of aPD1 antibody. In kind it is functional. The conditions noted are these: dose lower […], dose upper […], route ip.
Data set [18] in a line: in vitro. As to conditions: PHA-activated T cells.

pEC50, pIC50: −log10 of the molar value. Active and inactive are the calls of the source.

Experimental findings from ChEMBL document CHEMBL5357068, “Discovery of Novel TLR7 Agonists as Systemic Agent for Combination With aPD1 for Use in Immuno-oncology” (ACS Med Chem Lett, 2024) are described below.

Chain of Toll-like receptor 4 (Homo sapiens) (O00206 whole entry): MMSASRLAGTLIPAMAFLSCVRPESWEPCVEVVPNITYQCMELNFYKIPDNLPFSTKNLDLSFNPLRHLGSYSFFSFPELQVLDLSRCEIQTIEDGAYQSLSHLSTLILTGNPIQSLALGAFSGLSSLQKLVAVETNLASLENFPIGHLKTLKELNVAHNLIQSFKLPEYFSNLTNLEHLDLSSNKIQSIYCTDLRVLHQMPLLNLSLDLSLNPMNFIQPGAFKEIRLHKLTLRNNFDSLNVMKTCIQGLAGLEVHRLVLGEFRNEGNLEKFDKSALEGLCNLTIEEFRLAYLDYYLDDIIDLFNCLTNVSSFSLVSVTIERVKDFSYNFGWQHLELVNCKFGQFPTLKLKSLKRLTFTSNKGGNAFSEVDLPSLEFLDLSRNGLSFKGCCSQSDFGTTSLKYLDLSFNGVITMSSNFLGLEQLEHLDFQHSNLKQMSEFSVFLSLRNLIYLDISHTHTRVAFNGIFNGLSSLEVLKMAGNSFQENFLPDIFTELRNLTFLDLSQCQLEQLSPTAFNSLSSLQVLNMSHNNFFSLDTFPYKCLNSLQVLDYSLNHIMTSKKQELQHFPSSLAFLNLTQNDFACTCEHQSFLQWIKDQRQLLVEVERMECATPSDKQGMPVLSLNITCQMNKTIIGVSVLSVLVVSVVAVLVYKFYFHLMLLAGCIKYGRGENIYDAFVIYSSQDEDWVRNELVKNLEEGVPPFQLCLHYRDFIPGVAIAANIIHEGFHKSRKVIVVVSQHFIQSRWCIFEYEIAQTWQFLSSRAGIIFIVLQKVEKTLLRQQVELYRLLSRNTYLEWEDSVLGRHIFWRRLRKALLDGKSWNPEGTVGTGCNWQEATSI

As usually defined, the pEC50 is the EC50 on a negative log10 scale, so that one unit is a factor of ten. For orientation: fraction unbound means free concentration divided by total concentration. The term half-life denotes the time needed for the level to fall by half in the phase considered. One may read the pIC50 as −log10 of the IC50, conventionally taken in molar units. Take `CCC[C@@H](CCO)Nc1nc(N)nc2cnn(Cc3ccc(CNC4CCOCC4)cc3OC)c12`: the pEC50 is 6.20 in data set [1]; 9.89 in [2]; 9.96 in [3]; 10.05 in data set [4]; 9.49 in data set [5]; 9.72 in data set [6]. Moreover, the results for the pEC50 in [7] and in data set [8] were 9.89 and 9.74, respectively. Moreover, in [9], the fraction unbound was 0.41. The EC in data set [10] was more than 5 µM; in data set [11] it was more than 50 nM; in data set [12], more than 25 µM; in [13] it was more than 25 µM. For the same molecule, the half-life in data set [14] came out at 85 min; in data set [15], 16 min. In data set [16], the outcome was inactive. The Activity entry in data set [17] was “Dose-Dependent Effect”. This molecule gave a pIC50 in data set [18] of less than 4.60.
